Measurements as given in the supplement of paper PMC4862054.

Columns and labels:
Settings in all cases: incubation time: 72 h
BT-474 [1] = experiment: normalised response (% of control), CellTiter-Glo; higher = more viable cells (100 = DMSO, 0 = benzethonium chloride kill control)
In short: (§1)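 Breast cancer cell lines, seeded at 20 µl suspension per well, were incubated for 72 h in 384-well plates containing compound at 5 concentrations. These concentrations rose in 10-fold steps over a 10,000-fold range set for each compound. CellTox Green fluorescence (485/520 nm) was read, then CellTiter-Glo luminescence after 10 min at room temperature, and each plate was normalised to 0.1 % DMSO (100) and a positive kill control (0). Values are normalised signals, each at one concentration.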

BT-549 [2] = experiment: as above
In short: as §1

CAL-120 [3] = experiment: as above
In short: as §1

CAL-148 [4] = experiment: as above
In short: as §1

CAL-51 [5] = experiment: as above
In short: as §1

CAL-85-1 [6] = experiment: as above
In short: as §1

DU-4475 [7] = experiment: as above
In short: as §1

HCC1143 [8] = experiment: as above
In short: as §1

HCC1599 [9] = experiment: as above
In short: as §1

HCC1937 [10] = experiment: as above
In short: as §1

HDQ-P1 [11] = experiment: as above
In short: as §1

Hs578T [12] = experiment: as above
In short: as §1

MCF-10A = experiment: as above
In short: as §1

MDA-MB-231 [13] = experiment: as above
In short: as §1

MDA-MB-436 [14] = experiment: as above
In short: as §1

MDA-MB-453 [15] = experiment: as above
In short: as §1

MDA-MB-468 [16] = experiment: as above
In short: as §1

MFM-223 [17] = experiment: as above
In short: as §1

SK-BR-3 [18] = experiment: as above
In short: as §1

BT-474 [19] = experiment: normalised viability (% of control), CellTiter-Blue; higher = more viable cells (100 = DMSO, 0 = benzethonium chloride kill control)
Method: (§2)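 DSRT, CellTiter-Blue viability, 72 h incubation. Signal is normalised to DMSO and benzethonium chloride controls. Value is the normalised response at dose 1.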

BT-549 [20] = experiment: as above
Method: as §2

CAL-120 [21] = experiment: as above
Method: as §2

CAL-148 [22] = experiment: as above
Method: as §2

CAL-51 [23] = experiment: as above
Method: as §2

CAL-85-1 [24] = experiment: as above
Method: as §2

DU-4475 [25] = experiment: as above
Method: as §2

HCC1143 [26] = experiment: as above
Method: as §2

HCC1599 [27] = experiment: as above
Method: as §2

HCC1937 [28] = experiment: as above
Method: as §2

HDQ-P1 [29] = experiment: as above
Method: as §2

Hs578T [30] = experiment: as above
Method: as §2

MDA-MB-231 [31] = experiment: as above
Method: as §2

MDA-MB-436 [32] = experiment: as above
Method: as §2

MDA-MB-453 [33] = experiment: as above
Method: as §2

MDA-MB-468 [34] = experiment: as above
Method: as §2

MFM-223 [35] = experiment: as above
Method: as §2

SK-BR-3 [36] = experiment: as above
Method: as §2

SMILES	normalised response (BT-474 [1])	normalised response (BT-549 [2])	normalised response (CAL-120 [3])	normalised response (CAL-148 [4])	normalised response (CAL-51 [5])	normalised response (CAL-85-1 [6])	normalised response (DU-4475 [7])	normalised response (HCC1143 [8])	normalised response (HCC1599 [9])	normalised response (HCC1937 [10])	normalised response (HDQ-P1 [11])	normalised response (Hs578T [12])	normalised response (MCF-10A)	normalised response (MDA-MB-231 [13])	normalised response (MDA-MB-436 [14])	normalised response (MDA-MB-453 [15])	normalised response (MDA-MB-468 [16])	normalised response (MFM-223 [17])	normalised response (SK-BR-3 [18])	normalised viability (BT-474 [19])	normalised viability (BT-549 [20])	normalised viability (CAL-120 [21])	normalised viability (CAL-148 [22])	normalised viability (CAL-51 [23])	normalised viability (CAL-85-1 [24])	normalised viability (DU-4475 [25])	normalised viability (HCC1143 [26])	normalised viability (HCC1599 [27])	normalised viability (HCC1937 [28])	normalised viability (HDQ-P1 [29])	normalised viability (Hs578T [30])	normalised viability (MDA-MB-231 [31])	normalised viability (MDA-MB-436 [32])	normalised viability (MDA-MB-453 [33])	normalised viability (MDA-MB-468 [34])	normalised viability (MFM-223 [35])	normalised viability (SK-BR-3 [36])
N.N.[Cl][Pt][Cl] [Cisplatin] (1 nM)	101%	98.7%	101%	90.5%	74.7%	94.9%	94.2%	90.8%	102%	101%	101%	101%	95.4%	100%	96.7%	99.3%	94.9%	99.4%	98.7%	109%	92%	85.1%	118%	113%	92.1%	107%	98.2%	96.4%	90.5%	106%	121%	103%	105%	111%	98.2%	93.7%	100%
CN(C)/N=N/c1[nH]cnc1C(N)=O [Dacarbazine] (1 nM)	101%	101%	94.7%	100%	99.1%	96.7%	104%	104%	96.7%	101%	96%	107%	100%	105%	122%	116%	102%	103%	99.9%	99.6%	108%	89.3%	99.7%	87.7%	90.2%	104%	92.2%	81.7%	108%	105%	106%	94.8%	114%	96.5%	103%	101%	106%
Cc1ccc(-n2nc(C(C)(C)C)cc2NC(=O)Nc2ccc(OCCN3CCOCC3)c3ccccc23)cc1 [Doramapimod] (1 nM)	95.5%	107%	93.3%	88.6%	83.7%	91.3%	97.6%	98.3%	81.5%	97.4%	93%	95.5%	78.8%	97.9%	93.8%	95%	95%	92.4%	79.2%	112%	99.7%	89.9%	97.8%	112%	100%	105%	97.3%	99.3%	87%	64.3%	101%	102%	92.2%	104%	105%	98.8%	108%
C#Cc1cccc(Nc2ncnc3cc(OCCOC)c(OCCOC)cc23)c1 [Erlotinib] (1 nM)	101%	106%	96.1%	103%	107%	102%	106%	101%	97.1%	104%	100%	106%	115%	101%	131%	116%	93%	105%	100%	95%	111%	85%	97.8%	98.2%	95.3%	89%	86.6%	80.1%	102%	102%	84%	107%	99.6%	99.8%	107%	98.8%	108%
COc1cc([C@@H]2c3cc4c(cc3[C@@H](O[C@@H]3O[C@@H]5CO[C@@H](C)O[C@H]5[C@H](O)[C@H]3O)[C@H]3COC(=O)[C@H]23)OCO4)cc(OC)c1O [Etoposide] (1 nM)	103%	114%	101%	104%	134%	98.6%	106%	110%	107%	98.8%	105%	105%	110%	113%	128%	106%	101%	107%	109%	91.5%	96.9%	98.1%	110%	87.8%	99%	112%	107%	121%	86%	96.3%	97.3%	90.8%	105%	103%	98%	100%	97.5%
O=P1(NCCCl)OCCCN1CCCl (stereo unspecified) [Ifosfamide] (1 nM)	94.2%	102%	92.2%	99.4%	78.5%	93.9%	93.7%	89.7%	94.2%	94.8%	98.1%	98.8%	92.1%	97%	97.8%	90.3%	95.3%	87.2%	93.3%	86.7%	122%	89.7%	118%	110%	84.3%	116%	88.9%	109%	87.6%	119%	55.3%	122%	95.2%	107%	124%	93.8%	98.3%
CC1(C)NC(=O)N(c2ccc([N+](=O)[O-])c(C(F)(F)F)c2)C1=O [Nilutamide] (1 nM)	108%	103%	99.1%	111%	93.2%	100%	105%	101%	109%	98.4%	101%	101%	106%	97.4%	102%	105%	106%	103%	111%	95.7%	95.1%	86.6%	103%	100%	96%	115%	99.5%	85.1%	114%	125%	126%	131%	123%	112%	108%	100%	99.1%
Cc1ccc(C(=O)Nc2ccc(CN3CCN(C)CC3)c(C(F)(F)F)c2)cc1C#Cc1cnc2cccnn12 [Ponatinib] (0.1 nM)	102%	109%	103%	105%	95.4%	103%	101%	95.9%	99.4%	95.3%	104%	102%	102%	99.3%	105%	101%	105%	98%	101%	90.1%	98.3%	97.1%	98.5%	87.5%	101%	97.2%	103%	104%	87.3%	109%	111%	107%	103%	92.5%	104%	103%	91.9%
